pIC50: −log10 of the molar value.

Our source for the IC50 values is ChEMBL document CHEMBL4396934, “Novel α,β-unsaturated hydroxamic acid derivatives overcome cisplatin resistance” (Bioorg Med Chem, 2019).

For one assay, the system named is A2780. In words: Antiproliferative activity against human A2780 cells after 72 hrs by microplate reader based MTT assay. Format: functional, cell-based. Conditions: A2780, 72 h. In general terms: Tetrazolium dyes change colour on reduction, which living cells bring about.
A further assay has as its system CAL-27. In words: Antiproliferative activity against human CAL27 cells after 72 hrs by microplate reader based MTT assay. Format: functional, cell-based. Conditions: CAL-27, 72 h.
The target in assay [1] is Histone deacetylase. In words: Inhibition of HDAC in human A2780 cells using Boc-Lys(epsilon-Ac)-AMC as substrate preincubated for 18 hrs followed by substrate addition and further incubation for 3 hrs by microplate reader based fluorescence assay. It counts as cell-based.
Assay [2] deals with Histone deacetylase. In words: Inhibition of HDAC in human CAL27 cells using Boc-Lys(epsilon-Ac)-AMC as substrate preincubated for 18 hrs followed by substrate addition and further incubation for 3 hrs by microplate reader based fluorescence assay. It counts as cell-based.

As a reminder, the pIC50 is the negative decadic logarithm of the IC50, by convention in mol/L. Low readings indicate a high IC50, high ones a low IC50. As to `Cc1[nH]c2ccccc2c1CCNCc1ccc(/C=C/C(=O)NO)cc1` [PANOBINOSTAT], the pIC50 is 7.26 in the assay on A2780 and 7.96 with CAL-27.

What is called IC50 is the concentration needed to halve the response being measured. Low readings indicate greater potency, high ones weaker potency. As for `O=C(/C=C/c1ccc(CONC(=O)Nc2cccc3ccccc23)cc1)NO`, the negative-log IC50 (pIC50) was 4.41 with A2780 and 4.47 in the assay with CAL-27. Further, the half-maximal inhibitory concentration (IC50) was 43.2 µM against Histone deacetylase [1] and 40.3 µM against Histone deacetylase [2].

As for `O=C(/C=C/c1ccc(CONC(=O)c2ccc3ccccc3c2)cc1)NO`, the figures for the pIC50 in the assay with A2780 and in the assay on CAL-27 were 5.51 and 5.44, respectively. Besides, the results for the IC50 at Histone deacetylase [1] and on Histone deacetylase [2] were 1.92 µM and 2.83 µM, respectively.

For the compound `CC(C(=O)NOCc1ccc(/C=C/C(=O)NO)cc1)(c1ccccc1)c1ccccc1`, the pIC50 in the assay with A2780 was 5.34; in the assay with CAL-27, 5.24. Also, the results for the half-inhibitory concentration (IC50) at Histone deacetylase [1] and on Histone deacetylase [2] were 3.34 µM and 4.81 µM, respectively.

In the case of `O=C(/C=C/c1ccc(CONC(=O)c2nccc3ccccc23)cc1)NO`, the pIC50 in the assay with A2780 is 5.50; with CAL-27 it was 5.38. In addition, the IC50 on Histone deacetylase [1] stood at 1.98 µM; at Histone deacetylase [2], 4.48 µM.

For `Cc1[nH]c2ccccc2c1CC(=O)NOCc1ccc(/C=C/C(=O)NO)cc1`, the pIC50 in the assay with A2780 is 4.85; in the assay on CAL-27 it was 5.28. In addition, the figures for the IC50 on Histone deacetylase [1] and against Histone deacetylase [2] were 1.12 µM and 2.65 µM, respectively.

As to `Cc1cc(C)cc(NC(=O)NOCc2ccc(/C=C/C(=O)NO)cc2)c1`, the pIC50 was 5.70 with A2780 and 5.64 in the assay on CAL-27. The values for the IC50 at Histone deacetylase [1] and at Histone deacetylase [2] were 1.54 µM and 1.12 µM, respectively.

`O=C(/C=C/c1ccc(CONC(=O)c2csc(-c3ccccc3)n2)cc1)NO`: the pIC50 with A2780 is 5.69; with CAL-27, 4.79. The IC50 at Histone deacetylase [1] was found to be 19.2 µM; against Histone deacetylase [2], 11.6 µM.

Turning to `CCNC(=O)NOCc1ccc(/C=C/C(=O)NO)cc1`, the values for the pIC50 in the assay on A2780 and in the assay on CAL-27 were 4.45 and 4.85, respectively. Further, the half-maximal inhibitory concentration (IC50) against Histone deacetylase [1] was determined as 6.85 µM; against Histone deacetylase [2], 14.2 µM.

For `CCCCOc1ccc(C(=O)NOCc2ccc(/C=C/C(=O)NO)cc2)cc1`, the figures for the pIC50 with A2780 and with CAL-27 were 5.77 and 5.34, respectively. The figures for the 50% inhibitory concentration (IC50) against Histone deacetylase [1] and at Histone deacetylase [2] were 7.6 µM and 3 µM, respectively.

On to `Cc1cc(C)c(NC(=O)NOCc2ccc(/C=C/C(=O)NO)cc2)c(C)c1`, for which the pIC50 is 5.47 in the assay with A2780 and 5.46 in the assay on CAL-27. In addition, the IC50 at Histone deacetylase [1] was 2.29 µM; against Histone deacetylase [2], 4.21 µM.

For the compound `Cc1cc(C)cc(C(=O)NOCc2ccc(/C=C/C(=O)NO)cc2)c1`, the results for the pIC50 with A2780 and in the assay with CAL-27 were 5.63 and 5.65, respectively. Further, the IC50 is 0.9 µM against Histone deacetylase [1] and 1.09 µM at Histone deacetylase [2].

Turning to `O=C(/C=C/c1ccc(CONC(=O)Nc2ccccc2)cc1)NO`, the results for the pIC50 in the assay on A2780 and with CAL-27 were 3.95 and 4.21, respectively. Also, the IC50 was found to be 190 µM against Histone deacetylase [1] and 144 µM against Histone deacetylase [2].

Consider `O=C(/C=C/c1ccc(CONC(=O)c2ccccc2)cc1)NO`, for which the negative logarithm of the IC50 (pIC50) in the assay with A2780 is 5.68; in the assay on CAL-27, 5.52. Besides, the IC50 against Histone deacetylase [1] was found to be 0.94 µM; at Histone deacetylase [2] it was 1.16 µM.

As for `O=C(/C=C/c1ccc(CONC(=O)Nc2ccccc2-c2ccccc2)cc1)NO`, the pIC50 is 5.45 in the assay with A2780 and 5.58 in the assay with CAL-27. Besides, the IC50 at Histone deacetylase [1] was found to be 4.03 µM; against Histone deacetylase [2], 5.65 µM.

Consider `COc1cc(C(=O)NOCc2ccc(/C=C/C(=O)NO)cc2)cc(OC)c1OC`, for which the figures for the pIC50 in the assay with A2780 and in the assay with CAL-27 were 4.41 and 5.05, respectively. In addition, the concentration for half-maximal inhibition (IC50) was found to be 6.85 µM on Histone deacetylase [1] and 3.14 µM at Histone deacetylase [2].
